From publication PMC4109680, “Identification and Preclinical Pharmacology of the γ-Secretase Modulator BMS-869780” (International Journal of Alzheimer's Disease, 2014)
Entries after “also recorded” stand apart in the source; their conditions may differ.

Legend:
Aβ1-42 (MEF M146V) = assay: Aβ1-42 ELISA in MEF dKO cultures cotransfected with APP-CTF and human presenilin-1 M146V allele; assay type: cell-based
Description: H4-APPsw cell cultures were maintained on Dulbecco's modified Eagle's medium (DMEM) supplemented with L-glutamine (2 mM), fetal bovine serum (10%), and G418 (100 μg/mL). […] Aβ1-42 and Aβ1-40 assays, and Notch inhibition assays, were carried out as described previously. Mouse embryonic fibroblasts deficient in PS1 and PS2 (MEF dKO) were passaged twice per week in DMEM/F-12 medium, consisting of a 1 : 1 mixture of DMEM and F-12 nutrient mixture supplemented with 10% fetal bovine serum, penicillin, and streptomycin. For expression of human presenilin-1 in MEF dKO cells, the full length human presenilin-1 cDNA open reading frame was cloned between the BamHI and XhoI sites of the vector pcDNA5/FRT (Invitrogen), placing presenilin-1 expression under the control of the CMV promoter. […]
IC50 determinations for Aβ1-42 and Aβ1-40 in H4-APPsw cultures in 384-well format were determined using homogeneous time-resolved fluorescence immunoassays as previously described. […] In other experiments using H4-APPsw cultures, Aβ was quantified by ELISA; for Aβ1-42 the combination of monoclonal antibodies was 26D6 and 565-HRP; for Aβ1-40 it was TSD and 26D6-HRP, and for Aβ1-x it was 4G8 and 26D6-HRP. […] For Aβ in transiently transfected PS1/PS2 dKO fibroblasts, Aβ1-42 was quantified using an ELISA kit (WACO), and Aβ1-40 was quantified by ELISA as described above for H4-APPsw cultures. […]

[1] = tested on: duodenum, liver, and kidney; assay: Histopathology in rat 4-day oral dosing experiment; assay type: in vivo
Description: Determination of IC50 values for inhibition of secreted alkaline phosphatase (SEAP) was carried out using an H4 cell line stably expressing SEAP. Cells were treated overnight with compounds in 384-well format, and SEAP accumulation in the culture media was quantified using a chemiluminescence substrate. The pregnane-X-receptor transactivation assay (PXR-TA) was based on the methods of Goodwin et al. as described previously. In the 4-day rat study with BMS-869780, tissues were fixed in 10% neutral buffered formalin, embedded in paraffin, sectioned, stained with hematoxylin and eosin, and examined by light microscopy.
As a preliminary evaluation of safety in vivo, male and female rats were given 10, 30, and 100 mg/kg BMS-869780 orally once daily for 4 days. Endpoints included brain Aβ1-42, as described above (Figures 7(d) and 7(e)), plasma PK on day 1 and day 3 (Table 4), and histopathology for duodenum, liver, and kidney.

[2] = Plasma protein bound fraction, mouse; assay type: in vitro ADME

## COc1cc(Nc2nc3n(n2)CCCC[C@H]3c2ccc(F)cc2)ccc1-n1cnc(Cl)c1 [BMS-869780]
Aβ1-42 (MEF M146V); Homo sapiens, presenilin-1 M146V allele
  IC50: 22 nM
Aβ1-42 (MEF M146V); MEF cultures, higher IC50 (less potent) with M146V
  Aβ1-42 IC50 in M146V allele relative to wild type presenilin: ca. 3 fold
[1]; 10, 30 and 100 mg/kg orally once daily for 4 days
  duodenum and kidney histology: unchanged at all dose levels
[1]; at all doses (10, 30, 100 mg/kg once daily for 4 days)
  liver histology: macro- and microvesicular vacuolar degeneration
[1]; lipidosis after four daily doses of 10 mg/kg
  separation of hepatotoxicity from Aβ1-42 lowering exposure benchmarks: no separation of hepatotoxicity
[1]; up to 100 mg/kg once daily for 4 days
  Notch-related effect in duodenum: no Notch-related effect on differentiation in the duodenum; also recorded: did not cause any histological change in duodenum
[2]
  protein bound fraction: 99.6%
